Measurements as given in US20250368639A1, “SOLID FORMS OF A COMPOUND FOR TREATING OR PREVENTING HYPERURICEMIA OR GOUT” (ATOM THERAPEUTICS CO., LTD, priority 2022, published 2025).
“Also recorded” adds a separate entry of the source. Like-named read-outs stand apart in the source and are kept apart here.

Tests used:
[1] = Single-dose pharmacokinetic study, oral and intravenous, in SD rats; assay type: in vivo, SD rat; settings: for AUC(0-inf): read-out: AUCINF—pred; for half-life: read-out: HL_Lambda_z (T1/2) (converted); for Vd/F: read-out: Vz—F—pred;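 for AUClast: AUClast in h·ng/mL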
Description: Form 1, Form 2, and Form 5D were each evaluated via a single-dose pharmacokinetic study following oral and intravenous administration in SD rats. […] Form 1, Form 2, and Form 5Dwere evaluated by rat pharmacokinetics study.
Male SD rat was purchased from Shanghai Sippr B&K Laboratory Animals Co., Ltd. The weight was 180 g˜200 g.
20% HP-β-CD was prepared from dissolving20 g of HP-β-CD (from Sigma) in 100 mL purified water. 0.5% CMC-Na was prepared from dissolving 1 g of CMC-Na (from Aladdin) in 200 mL purified water. The solutions were stored at 2-8 degree.
(§1) Group 1:4.95 mg (equivalent to 4.50 mg of anhydrous free base) of Form 1 was weighed out into a 20 ml bottle, and totally dissolved by 0.225 mL DMSO by sonication. After that, 4.275 mL of 20% HP-β-CD was added, mixed well by sonication. Finally, the pH value was adjusted to 7.0 by sodium hydroxide solution. The clear solution was obtained, and the concentration was 1 mg/mL.
Group 2:10.08 mg (equivalent to 9.164 mg of anhydrous free base) of Form 1 was weighed out into a 20 ml bottle, and then 9.164 mL of 0.5% CMC-Na was added. A white suspension was formed after sonicated by ultrasonic cell disruptor, and the concentration was 1 mg/mL.
Group 3:9.47 mg of Form 2 was weighed out into a 20 ml bottle, and then 9.470 mL of 0.5% CMC-Na was added. After sonicated, it was mixed well by homogenizer for 2 minutes. Finally, a white suspension was formed, and the concentration was 1 mg/mL.
Group 4:9.80 mg (equivalent to 8.909 mg of free base) of Form 5Dwas weighed out into a 20 mL bottle, and then 8.909 mL of 0.5% CMC-Na was added. After sonicated, it was mixed well by homogenizer for 2 minutes. Finally, a white suspension was formed, and the concentration was 1 mg/mL.
as §1, with “Group 5:1.94” for “Group 1:4.95”, “to 1.763” for “to 4.50”, “by 0.088” for “by 0.225”, “that, 1.675” for “that, 4.275”, “was 0.2” for “was 1”
The dose of intravenous administration was 1 mg/kg and 5 mg/kg, respectively. The oral dose was 10 mg/kg. Animals were fasted overnight before drug administration. After the drug administration, the rats were fed at the 4 hours.
About 150˜200 μL of blood was collected at the initial time (only intravenous), and at 0.25, 0.5, 1, 2, 4, 6, 8 and 24 h by jugular venipuncture blooding method. EDTA-K2 was selected as anticoagulant. Blood samples were centrifuged within one hour at 6000 rpm for 8 minutes (placed on wet ice before centrifugation). The supernatant was stored at −20° C. for LC-MS/MS analysis.
The computer program Microsoft Office Excel 2007 (Microsoft, USA) was used to process data and graphics. The pharmacokinetic parameters were calculated by WinNolin 6.4 software.

[2] = Dynamic vapor sorption/desorption (DVS); assay type: physicochemical
Description: Moisture sorption/desorption data were collected on a SMS DVS intrinsic Vapor Sorption Analyzer under a nitrogen purge. The DVS experiment generally includes a moisture sorption step and a moisture desorption step. […] In other words, the sample is considered to have reached an equilibrium between moisture sorption and desorption under the relative humidity when dm/dt≤0.01%. The sample was maintained at the temperature of 25° C. with relative humidity varied from 0% to 95%, and back to 0% at an increment of 5% RH each step.

[3] = Solid state stability under stress conditions (XRPD, HPLC); assay type: physicochemical
Description: Form 1. Form 2, Form 6, Form 8, and Form 11 were each placed under following stress conditions: (1) in a closed vial at a temperature of about 60° C., and (2) in a closed vial at a temperature of about 40′° C. and a humidity of about 75% RH. The solids were analyzed with XRPD at 1 week and 2 weeks intervals.
Additionally, all forms were analyzed with HPLC for impurity at the 1 week and 2 weeks intervals. In a typical analysis, about 5 mg of forms were each dissolved in 10 ml of diluents with the aid of sonication for 2 minutes. THF was used as the diluent for Form 1, and methanol was used as the diluent for Form 6, Form 8, and Form 11. The HPLC analysis utilized Agilent Eclipse XDB-C18 4.6*150 mm. 3.5 μm at 30° C., a mobile phase of a gradient between 0.1% H3PO4 and acetonitrile (9:1 to 2:8 to 9:1), an injection volume of 10 μl, a flow rate of 1.0 ml/min, and a detection wavelength of 214 nm.
Form 2 was further subject to the stability test in an open vial at 40° C. and a relative humidity of 75% RH.

[4] = male SD rats, oral 10 mg/kg, Average (Table 10)
[5] = male, SD, rat, plasma, po, 10 mg/kg, male SD rats, oral 10 mg/kg, Average (Table 10)
[6] = male, SD, rat, plasma, po, 10 mg/kg, male SD rats, oral 10 mg/kg, individual rats 301/302/303 (c1/c2/c3)

CCc1nc2ccccn2c1C(=O)c1cc(Br)c(O)c(C#N)c1 [Form 2, 3-bromo-5-[(2-ethylimidazo[1,2-a]pyridin-3-yl)carbonyl]-2-hydroxybenzonitrile]
Exposure and bioavailability (words, comparison) ([1]; SD rats, oral administration 10 mg/kg, 10 mg/kg): higher dose exposure and bio-availability than Form 1; also recorded: higher exposure (AUC0-1) and better bioavailability than Form 1; also recorded: approximately the same as Form 5D; also recorded: sufficiently high bioavailability | AUClast [1, 4]: 88.4824 µg·h/mL | Cl—F—pred [1, 4]: 0.12 L/h/kg | F ([1]; male SD rats, oral 10 mg/kg, calculated by intravenous administration of 1 mg/kg, Average (Table 10)): 50.98% | Cmax [1, 5]: 7.95 µg/mL | MRT last [1, 5]: 6.12 h | Tmax [1, 5]: 4 h | AUC(0-inf) [1, 5]: 89.1 µg·h/mL | half-life [1, 5]: 3.08 h | Vd/F [1, 5]: 0.52 L/kg | AUC(0-t) [1, 6]: 108 µg·h/mL | Cmax [1, 6]: 8.49 µg/mL | MRT last [1, 6]: 6.15 h | Tmax [1, 6]: 4 h | AUC(0-inf) [1, 6]: 92.4 µg·h/mL | half-life [1, 6]: 3.32 h | Vd/F [1, 6]: 0.45 L/kg | DVS (80% RH) ([2]; 25° C., 80% RH): 0.40% | Water remaining within the sample (DVS desorption) ([2]; relative humidity decreased back to 0%): about 3.4% | Hygroscopicity (DVS) ([2]; relative humidity less than 80%): low hygroscopicity | Crystal form after DVS analysis (XRPD) ([2]; sample following DVS analysis): converted into Form 1 | Water absorbed (DVS) ([2]; when relative humidity reached 85% RH): about 3.8% | XRPD pattern after stress storage ([3]; closed vial about 60° C., closed vial about 40° C./75% RH, 1 week and 2 weeks): substantially similar to those received at the initial time | XRPD after storage in an open vial ([3]; open vial, 40° C., 75% RH): significant changes at the end of ninth day
